Results on 29 compounds are retold here after patent US7824866B2, “Ligand for G-protein coupled receptor GPR72 and uses thereof” (Euroscreen S.A., priority 2006, dated 2010).

Molecules are shown by their SMILES. Where two headings read alike, the source gives them in different places.

What all share (format): cell-based
Test [1] concerns the target T1, human GPR72 (Homo sapiens, UniProt Q9NYM4). The test can be described thus: Aequorin-based functional assay: intracellular calcium release (luminescence) in CHO-K1 cells stably expressing human GPR72, mitochondrial apoaequorin and Galpha16. Also on record: expressed in transfected cells. For orientation: Calcium assays in cells follow changes in intracellular calcium, usually with a dye or a luminescent sensor.

The target in test [2] is T1, human GPR72. The test can be described thus: aequorin intracellular calcium release assay, CHO-K1 cells expressing human GPR72. The following applies: for activity on GPR72 (structure-activity relationship): human GPR72 receptor, FIG. 8. Also on record: expressed in transfected cells; host or cells: CHO-K1 cells coexpressing mitochondrial apoaequorin and a G alpha subunit (Gα16). As for the experimental part: (§1) The aequorin assay takes advantage of the responsiveness of mitochondrial apoaequorin to intracellular calcium release induced by the activation of GPCRs (Stables et al., 1997, Anal. Biochem. 252:115-126; Detheux et al., 2000, J. Exp. Med., 192 1501-1508; both of which are incorporated herein by reference). Briefly, GPR72 polypeptide-expressing clones are transfected to coexpress mitochondrial apoaequorin and Gα16. Cells are incubated with 5 μM Coelenterazine H (Molecular Probes) for 4 hours at room temperature, washed in DMEM-F12 culture medium and resuspended at a concentration of 0.5×10^6 cells/ml. Cells are then mixed with test agonist molecules and light emission by the aequorin is recorded with a luminometer for 30 sec. Results are expressed as Relative Light Units (RLU). Controls include assays using membranes isolated from cells not expressing GPR72 polypeptide (mock transfected), in order to exclude possible non-specific effects of the candidate compound.
GPR72 expressing clones have been obtained by transfection of CHO-K1 cells to coexpressing mitochondrial apoaequorin and […], limiting dilution and selection by RT-PCR. Positive clones were used for biological extract library screening with porcine spleen extracts prepared as described above. A functional assay based on the luminescence of mitochondrial aequorin intracellular Ca^2+ release (Stables et al., 1997, Anal. Biochem. 252:115-126; incorporated herein by reference) was performed as described (Detheux et al., 2000, J. Exp. Med., 192 1501-1508; incorporated herein by reference). Briefly, cells were collected from plates in PBS containing 5 mM EDTA, pelleted and resuspended at 5×10^6 cells/ml in DMEM-F12 medium. Cells were incubated with 5 μM Coelenterazine H (Molecular Probes) for 4 hours at room temperature. Cells were then washed in DMEM-F12 medium and resuspended at a concentration of 0.5×10^6 cells/ml. Cells were then mixed with test agonist peptides or plates containing tissue extracts and the light emission was recorded for 30 sec using a Microlumat luminometer (Perkin Elmer). Results are expressed as Relative Light Units (RLU).
After being identified from active porcine […] fraction, ability of arachidonic acid to trigger intracellular calcium release was tested on CHO-K1 cell lines coexpressing the human or the mouse GPR72 receptor and apoaequorin. We have used the aequorin assay as previously described in Detheux et al. (2000) J exp Med. 192, 1501-1508. […] Arachidonic acid was also able to activate specifically the mouse GPR72 at concentration around 5 micromolar (FIG. 6).
PUFAs were tested on CHO-K1 cells stably expressing the human GPR72 for their ability to trigger intracellular calcium using aequorin. Obtained EC50 are in the 1-20 μM range (FIG. 7).

The target in the next test is T2, mouse GPR72 (Mus musculus, UniProt P30731).
T2 construct: expressed in transfected cells; host or cells: CHO-K1 cells coexpressing apoaequorin
The test can be described thus: aequorin intracellular calcium release assay, CHO-K1 cells expressing mouse GPR72. The following applies: CHO-K1 cells coexpressing mouse GPR72 and apoaequorin; FIG. 6. As for the experimental part:
as §1, with “Controls include assays using membranes isolated from cells not expressing GPR72 polypeptide (mock transfected), in order to exclude possible non-specific effects of the candidate compound.” left out
GPR72 expressing clones have been obtained by transfection of CHO-K1 cells to coexpressing mitochondrial apoaequorin and […], limiting dilution and selection by RT-PCR. […] A functional assay based on the luminescence of mitochondrial aequorin intracellular Ca^2+ release (Stables et al., 1997, Anal. Biochem. 252:115-126; incorporated herein by reference) was performed as described (Detheux et al., 2000, J. Exp. Med., 192 1501-1508; incorporated herein by reference). […] Results are expressed as Relative Light Units (RLU). […]

Setting [3] is: Figure 8, SAR of arachidonic acid on human GPR72 activation, CHO-K1 cells, aequorin, read-out: GPR72 EC50.
Setting [4] is: Figure 9, additional PUFAs, CHO-K1 cells stably expressing human GPR72, aequorin, read-out: human GPR72 receptor EC50.
The mark [5] stands for this setting: Figure 10, thiazolidinediones, CHO-K1 cells stably expressing human GPR72, aequorin, read-out: human GPR72 receptor EC50.

T1 sequence (Q9NYM4 17-423): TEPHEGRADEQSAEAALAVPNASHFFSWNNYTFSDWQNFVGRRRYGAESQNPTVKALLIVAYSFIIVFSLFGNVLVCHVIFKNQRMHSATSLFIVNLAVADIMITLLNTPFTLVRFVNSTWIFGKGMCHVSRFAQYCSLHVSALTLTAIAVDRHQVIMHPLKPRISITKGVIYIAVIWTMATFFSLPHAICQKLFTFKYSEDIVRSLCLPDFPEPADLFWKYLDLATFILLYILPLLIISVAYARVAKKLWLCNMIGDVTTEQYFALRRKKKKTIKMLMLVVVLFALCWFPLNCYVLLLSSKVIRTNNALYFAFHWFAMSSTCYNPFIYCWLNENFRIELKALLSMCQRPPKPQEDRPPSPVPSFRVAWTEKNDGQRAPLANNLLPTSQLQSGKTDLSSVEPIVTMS
T2 sequence (P30731 18-423): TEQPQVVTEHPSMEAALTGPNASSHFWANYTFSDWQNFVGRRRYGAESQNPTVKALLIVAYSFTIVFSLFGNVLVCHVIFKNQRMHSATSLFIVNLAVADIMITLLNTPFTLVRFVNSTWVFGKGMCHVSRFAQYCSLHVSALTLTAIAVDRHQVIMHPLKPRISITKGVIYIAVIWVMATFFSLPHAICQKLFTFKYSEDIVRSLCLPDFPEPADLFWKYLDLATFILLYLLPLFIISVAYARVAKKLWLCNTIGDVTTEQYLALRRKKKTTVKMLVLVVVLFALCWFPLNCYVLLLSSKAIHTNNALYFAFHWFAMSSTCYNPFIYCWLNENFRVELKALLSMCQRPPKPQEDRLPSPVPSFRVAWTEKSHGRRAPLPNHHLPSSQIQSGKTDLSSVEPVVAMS

With `CC1=C(/C=C/C(C)=C\C=C\C(C)=C\C(=O)O)C(C)(C)CCC1` [9-cis-Retinoic acid], the EC50 – broadly, the concentration giving half of the maximal effect – at human GPR72 [1] (setting [3]) is 0.4 µM. Take `CC1=C(/C=C/C(C)=C/C=C/C(C)=C\C(=O)O)C(C)(C)CCC1` [13-cis-Retinoic acid]: the concentration for a half-maximal effect (EC50) at human GPR72 [1] (setting [4]) was 16 µM. Turning to `CC1=C(/C=C/C(C)=C/C=C/C(C)=C/C(=O)O)C(C)(C)CCC1` [All-trans-retinoic acid], at human GPR72 [1] (setting [3]), the EC50 amounted to 86 µM. Turning to `CC1(COc2ccc(CC3SC(=O)NC3=O)cc2)CCCCC1` (stereo not drawn) [Ciglitazone], the EC50 at human GPR72 [1] (setting [5]) stood at 35 µM. For the compound `CC/C=C\C/C=C\C/C=C\C/C=C\C/C=C\C/C=C\CCC(=O)O` [Docosa-4Z,7Z,10Z,13Z,16Z,19Z-hexaenoic acid], the EC50 at human GPR72 [1] (setting [3]) came to 2 µM. Consider `CC/C=C\C/C=C\C/C=C\C/C=C\C/C=C\CCCCCC(=O)O` [Docosa-7Z,10Z,13Z,16Z,19Z-pentaenoic acid], for which, at human GPR72 [1] (setting [3]), the concentration giving a half-maximal response (EC50) is 9.3 µM.

`CCCCC/C=C\C/C=C\C/C=C\C/C=C\CCCCCC(=O)O` [Docosa-7Z,10Z,13Z,16Z-tetraenoic acid]: the concentration giving a half-maximal response (EC50) on human GPR72 [1] (setting [4]) turned out to be 10 µM. Take `CC/C=C\C/C=C\C/C=C\CCCCCCCCCCCC(=O)O` [Docosa-13Z,16Z,19Z-trienoic acid]: the EC50 on human GPR72 [1] (setting [3]) was 25 µM. On to `CCCCCC#CCC#CCC#CCC#CCCCC(=O)O` [Eicosa-5,8,11,14-tetraynoic acid], for which the EC50 on human GPR72 [1] (setting [4]) amounted to 27 µM.

Consider `CCCCCCCCC#CCC#CCC#CCCCC(=O)O` [Eicosa-5,8,11-triynoic acid], for which the EC50 on human GPR72 [1] (setting [4]) turned out to be 12 µM. With `CC/C=C\C/C=C\C/C=C\C/C=C\C/C=C\CCCC(=O)O` [Eicosa-5Z,8Z,11Z,14Z,17Z-pentaenoic acid], the EC50 at human GPR72 [1] (setting [3]) is 3.3 µM. `CCCCC/C=C\C/C=C\C/C=C\C/C=C\CCCC(=O)O` [Eicosa-5Z,8Z,11Z,14Z-tetraenoic acid]: at human GPR72 [1], the EC50 is 5 µM. Consider `CCCCCCCC/C=C\C/C=C\C/C=C\CCCC(=O)O` [Eicosa-5Z,8Z,11Z-trienoic acid], for which the EC50 at human GPR72 [1] (setting [3]) is 6.3 µM.

`CC/C=C\C/C=C\C/C=C\C/C=C\CCCCCCC(=O)O` [Eicosa-8Z,11Z,14Z,17Z-tetraenoic acid]: at human GPR72 [1] (setting [3]), the EC50 came out at 6 µM. For `CCCCC/C=C\C/C=C\C/C=C\CCCCCCC(=O)O` [Eicosa-8Z,11Z,14Z-trienoic acid], at human GPR72 [1] (setting [3]), the 50% effective concentration (EC50) was 44 µM.

For the compound `CC/C=C\C/C=C\C/C=C\CCCCCCCCCC(=O)O` [Eicosa-11Z,14Z,17Z-trienoic acid], at human GPR72 [1] (setting [4]), the half-maximal effective concentration (EC50) amounted to 25 µM.

With `CCCCC/C=C\C/C=C\CCCCCCCCCC(=O)O` [Eicosa-11Z,14Z-dienoic acid], the EC50 on human GPR72 [1] (setting [3]) is 17.9 µM.

Take `O=C1NC(=O)C(Cc2ccc3cc(OCc4ccccc4F)ccc3c2)S1` (stereo not drawn) [MCC-555]: the 50% effective concentration (EC50) on human GPR72 [1] (setting [5]) was determined as 25 µM. `CCCCC/C=C\C/C=C\C/C=C\C/C=C\CCCC(=O)NCC(O)CC(=O)O` (stereo not drawn) [N-arachidonoyl-3-hydroxy-γ-aminobutyric acid]: the concentration giving a half-maximal response (EC50) at human GPR72 [1] (setting [3]) is 0.7 µM. Still for that read-out and setting: the same measure for `CCCCC/C=C\C/C=C\C/C=C\C/C=C\CCCC(=O)N[C@@H](C)C(=O)O` [N-arachidonoyl-L-alanine]: 2.9 µM. Turning to `CCCCC/C=C\C/C=C\C/C=C\C/C=C\CCCC(=O)N[C@@H](CO)C(=O)O` [N-arachidonoyl-L-serine], the half-maximal effective concentration (EC50) on human GPR72 [1] (setting [3]) came to 3 µM. On to `CCCCC/C=C\C/C=C\C/C=C\C/C=C\CCCC(=O)NCCS(=O)(=O)O` [N-arachidonoyl-L-taurine], for which the “activity on GPR72 (structure-activity relationship)” value (“activity on GPR72” for short) at human GPR72 [2] was “active”. In addition, the EC50 on human GPR72 [1] (setting [3]) amounted to 1.3 µM.

For `CCCCC/C=C\C/C=C\C/C=C\C/C=C\CCCC(=O)NCC(=O)O` [N-arachidonoyl-glycine], the “activity on GPR72” value at human GPR72 [2] was “active”. In addition, the EC50 at human GPR72 [1] turned out to be 3.5 µM. On to `CCCCC/C=C\C/C=C\C/C=C\C/C=C\CCCC(=O)NCCCC(=O)O` [N-arachidonoyl-γ-aminobutyric acid], for which the concentration giving a half-maximal response (EC50) at human GPR72 [1] (setting [3]) came to 4.3 µM.

With `CC/C=C\C/C=C\C/C=C\C/C=C\CCCCC(=O)O` [Octadeca-6Z,9Z,12Z,15Z-tetraenoic acid], the concentration giving a half-maximal response (EC50) on human GPR72 [1] (setting [4]) amounted to 74 µM.

With `CCCCC/C=C\C/C=C\C/C=C\CCCCC(=O)O` [Octadeca-6Z,9Z,12Z-trienoic acid], at human GPR72 [1] (setting [3]), the EC50 was 0.8 µM.

For the compound `CC/C=C\C/C=C\C/C=C\CCCCCCCC(=O)O` [Octadeca-9Z,12Z,15Z-trienoic acid], the EC50 on human GPR72 [1] worked out at 4.7 µM. Consider `CCCCC/C=C\C/C=C\C/C=C\C/C=C\CCCC(=O)OC` [arachidonic acid methyl ester], for which the “activity on GPR72” value on human GPR72 [2] was “not active”.

In the case of `CCCCC/C=C\C/C=C\C/C=C\C/C=C\CCCC(=O)O` [arachidonic acid, 5,8,11,14-all-cis-eicosatetraenoic acid], at human GPR72 [2] (CHO-K1 cells coexpressing human GPR72 and apoaequorin, mock-transfected cells as control, FIG. 5), the “concentration at which the human GPR72 is specifically activated” value is “around 5 micromolar”. On human GPR72 [2], the “activity on GPR72” value is reported as “active”. The “concentration at which the mouse GPR72 is specifically activated” value at mouse GPR72 is “around 5 micromolar”.
